Source: patent US20220096602A1, “LIF THERAPY FOR INDUCING INTESTINAL EPITHELIAL CELL REGENERATION” (Rutgers, the State University of New Jersey, priority 2019, published 2022)

Tests used:
WT intestinal organoids = assay: Intestinal organoid culture: growth and proliferation of WT organoids; format: cell-based, mouse; conditions: for stem cell number in WT organoids: organoids from WT, Lgr5-GFP mouse crypts; for growth and proliferation of WT organoids: Stattic 2 μM, SB242235 1 μM; for effect on ISC functions in WT organoids: blocking STAT3 or MAPK activity
Description: (§1) Crypt isolation and organoid culture were performed as described previously (Nan Gao's paper, 2015, Development). Crypts were isolated from the mouse small intestine. 150-200 crypts were embedded in growth factor-reduced Matrigel and cultured with mouse ENR organoid culture medium containing 1×B27 (Life Tech Gibco), 1×N2 (Life Tech Gibco), 1 mM N-acetylcysteine (Sigma), 50 ng/ml of EGF (Life Technology), 100 ng/ml of Noggin (R&D System), and 1 μg/ml of R-spondin 1 (R&D system). Recombinant mouse LIF (Millipore), wortmannin (Cell Signaling Technology) and CHIR99021 (Stemgent) were used for organoid treatment.
(§2) The size organoid was evaluated by quantify surface area of horizontal cross section of organoids acquired from multiple random non-overlapping pictures by an Olympus inverted microscope using ImageJ software. The vertical direction of expansion was not included in the calculations. n≥30/group. The percentages of budding organoids were analyzed by light microscopy at different days during organoid culture. n≥100/group.
(§3) IF staining of organoids was performed as previously described (Gao and Kaestner, 2010). In brief, organoids were fixed with 4% paraformaldehyde for 10 min, treated with 0.5% TritonX-100 for 10 min and blocked with 10% goat serum in IF buffer (0.1% BSA, 0.2% Triton X100, 0.05% Tween-20, 0.05% NaN3 in PBS) for 2 hours. Organoids were incubated with anti-Ki67 (Abcam, ab16667, 1:200 dilution) and anti-GFP (Abcam, ab6673, 1:1000 dilution) antibodies overnight at room temperature and then incubated with Alexa Fluor® 555 Goat Anti-Rabbit IgG (H+L) (Invitrogen, 1:800 dilution) and Alexa Fluor® 488 Donkey Anti-Goat IgG (H+L) (Invitrogen, 1:200 dilution), respectively to detect Ki67 and Lgr5-EGFP. Nuclei were stained with 4′, 6-diamidino-2-phenylindole (DAPI; Vector).

[1] = system: LIF KO intestinal organoids; assay: Intestinal organoid culture: growth and proliferation of LIF KO organoids; format: cell-based, mouse; conditions: for stem cell number in LIF KO organoids: organoids from LIF KO, Lgr5-GFP mouse crypts; for growth and proliferation of LIF KO organoids: Stattic 2 μM, SB242235 1 μM
Description: as §1, §2, §3

LIF receptor (LIFR) = biological target: T1, LIF receptor (LIFR) (Homo sapiens, UniProt P42702); conditions: cited from earlier work
T1 sequence (P42702 45-1097): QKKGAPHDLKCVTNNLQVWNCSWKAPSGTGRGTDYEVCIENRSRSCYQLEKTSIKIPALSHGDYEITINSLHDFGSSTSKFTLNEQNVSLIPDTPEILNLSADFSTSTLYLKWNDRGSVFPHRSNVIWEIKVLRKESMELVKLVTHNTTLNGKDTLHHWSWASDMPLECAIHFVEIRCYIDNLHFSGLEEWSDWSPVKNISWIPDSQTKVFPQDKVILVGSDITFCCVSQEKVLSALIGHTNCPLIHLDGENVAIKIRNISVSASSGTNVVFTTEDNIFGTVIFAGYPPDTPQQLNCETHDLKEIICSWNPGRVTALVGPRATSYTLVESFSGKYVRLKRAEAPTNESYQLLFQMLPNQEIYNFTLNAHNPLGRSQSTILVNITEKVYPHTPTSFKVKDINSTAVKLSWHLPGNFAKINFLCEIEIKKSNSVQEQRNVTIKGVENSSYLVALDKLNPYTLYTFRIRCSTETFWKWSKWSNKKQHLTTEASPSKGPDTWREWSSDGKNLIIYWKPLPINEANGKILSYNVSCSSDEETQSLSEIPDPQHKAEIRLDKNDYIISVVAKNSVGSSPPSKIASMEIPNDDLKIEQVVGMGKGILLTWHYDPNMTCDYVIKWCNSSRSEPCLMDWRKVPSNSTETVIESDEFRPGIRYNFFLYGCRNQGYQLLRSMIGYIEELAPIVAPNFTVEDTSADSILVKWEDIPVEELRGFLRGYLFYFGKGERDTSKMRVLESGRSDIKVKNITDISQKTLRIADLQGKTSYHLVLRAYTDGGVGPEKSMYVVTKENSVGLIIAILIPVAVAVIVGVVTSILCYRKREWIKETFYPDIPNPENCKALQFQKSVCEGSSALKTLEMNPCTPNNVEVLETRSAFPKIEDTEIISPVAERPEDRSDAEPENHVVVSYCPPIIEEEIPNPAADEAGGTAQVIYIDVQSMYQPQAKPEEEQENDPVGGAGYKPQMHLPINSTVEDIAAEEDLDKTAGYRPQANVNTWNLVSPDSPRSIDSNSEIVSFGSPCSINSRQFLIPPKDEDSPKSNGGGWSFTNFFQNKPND

[2] = biological target: T2, gp130 (LIF:LIFR:gp130 complex) (Homo sapiens, UniProt P40189+P42702); conditions: after binding to LIFR; cited from earlier work
T2 sequence (P40189 23-918): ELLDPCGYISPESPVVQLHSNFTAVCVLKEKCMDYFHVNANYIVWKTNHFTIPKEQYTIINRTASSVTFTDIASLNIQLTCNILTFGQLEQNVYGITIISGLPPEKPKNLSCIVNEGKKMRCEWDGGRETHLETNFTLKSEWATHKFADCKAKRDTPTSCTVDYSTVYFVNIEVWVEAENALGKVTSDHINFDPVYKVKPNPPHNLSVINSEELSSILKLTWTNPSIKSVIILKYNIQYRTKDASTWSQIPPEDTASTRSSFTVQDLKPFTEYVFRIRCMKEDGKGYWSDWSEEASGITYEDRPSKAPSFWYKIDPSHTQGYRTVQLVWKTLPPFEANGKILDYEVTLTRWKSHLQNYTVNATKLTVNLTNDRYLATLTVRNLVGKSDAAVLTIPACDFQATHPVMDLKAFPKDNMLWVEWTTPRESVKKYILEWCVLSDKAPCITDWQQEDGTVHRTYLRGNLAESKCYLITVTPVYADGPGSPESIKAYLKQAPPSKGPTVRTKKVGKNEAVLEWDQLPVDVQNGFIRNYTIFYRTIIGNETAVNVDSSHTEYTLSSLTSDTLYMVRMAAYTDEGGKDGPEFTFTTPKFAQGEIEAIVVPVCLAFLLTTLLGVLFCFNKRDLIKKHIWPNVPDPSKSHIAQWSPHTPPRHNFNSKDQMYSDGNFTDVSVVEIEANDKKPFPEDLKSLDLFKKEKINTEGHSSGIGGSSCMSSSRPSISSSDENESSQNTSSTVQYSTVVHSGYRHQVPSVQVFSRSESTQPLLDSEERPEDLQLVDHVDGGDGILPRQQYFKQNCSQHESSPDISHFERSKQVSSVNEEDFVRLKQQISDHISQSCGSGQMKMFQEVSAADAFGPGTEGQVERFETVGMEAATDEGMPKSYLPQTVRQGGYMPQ
T2 sequence (P42702 45-1097): T1 sequence (P42702 45-1097)

[3] = system: β-catenin target genes Axin2, Ascl1, Olfm4 and Lgr5; assay: Quantitative real-time PCR of β-catenin target genes in organoids; format: cell-based, mouse; conditions: normalized with β-actin
Description: Total RNA from mice small intestine tissues or organoids was prepared by using an RNeasy kit (Qiagen). Quantitative real-time PCR assays were performed as described previously. The expression of genes was normalized with the β-actin gene. Data was obtained from 5 independent biological samples with 3 technical replicates. To investigate whether LIF regulates ISC function through upregulating the AKT signaling, WT and LIF KO organoids were treated with Wortmannin, a PI3K inhibitor that inhibits the PI3K/Akt signaling, and Capivasertib, a specific AKT inhibitor (31, 32). […] Further, we directly examined the effects of Capivasertib and SC79 on β-catenin activity by measuring the mRNA levels of its target genes in WT and LIF KO organoids. […] We further treated organoids formed by WT or LIF KO; Lgr5-GFP mouse crypts with Wortmannin, Capivasertib or SC79. […] We further examined whether blocking GSK3β can improve the growth of LIF KO organoids.

intestinal epithelium = assay: Regeneration of intestinal epithelium after irradiation in inducible LIF-tgflox/+/Cre-ERT2 mice; format: in vivo, mouse; conditions: tamoxifen-induced LIF expression; i.p. 3 days before 12 Gy IR; 72 h after irradiation
Description: Eight-twelve-week-old male and female LIF-tg^flox/+/Cre-ERT2 mice were injected (i.p.) with tamoxifen ([…] body weight for male and […] body weight for female) to induce LIF expression 3 days before irradiation (D-3). Age- and gender-matched LIF-tg^flox/+/Cre-ERT2 mice were injected with corn oil as control on D-3. On D0 mice were subject to 12 Gy-whole-body irradiated. Mouse intestine tissue was collected at 72 h after irradiation (D3). The levels of Ki67 in intestinal epithelium were determined by immunohistochemistry (IHC) staining. n=6 in Tamoxifen treated group, n=4 in control group.

[4] = single s.c. dose, up to doses of 4 μg/kg, healthy volunteers; cited from earlier work
[5] = patients with advanced cancers; cited from earlier work

Cc1c[nH]c(-c2cnc(NCCNc3ccc(C#N)cn3)nc2-c2ccc(Cl)cc2Cl)n1 [CHIR99021]
growth, cell proliferation and stem cell number of WT organoids (WT intestinal organoids; CHIR99021 3 μM, compared with LIF KO organoids): much less pronounced effect
growth, cell proliferation and stem cell number of LIF KO organoids ([1]; CHIR99021 3 μM): greatly improved

human LIF: Human canonical LIF, accession number P15018, SEQ ID NO: 1
affinity of binding to LIFR (LIF receptor (LIFR)): low nanomolar
affinity of functional signaling complex with gp130 [2]: picomolar

NC1(C(=O)N[C@@H](CCO)c2ccc(Cl)cc2)CCN(c2ncnc3[nH]ccc23)CC1 [Capivasertib]
growth of WT organoids and cell proliferation (surface area, organoid formation, Ki67+ cells) (WT intestinal organoids; inhibitor 1 μM, WT organoids): greatly inhibited
stem cell number in WT organoids (WT intestinal organoids): greatly decreased
rescue effect of recombinant LIF on the growth of LIF KO organoids ([1]; inhibitor 1 μM with LIF 50 ng/ml): largely abolished
inhibitory effects on organoid growth and cell proliferation in LIF KO organoids ([1]; inhibitor 1 μM, compared with WT organoids): much less pronounced
stem cell number in LIF KO organoids [1]: much less pronounced inhibitory effect
mRNA levels of Axin2, Ascl1, Olfm4 and Lgr5 in LIF KO organoids [3]: less pronounced effect
mRNA levels of Axin2, Ascl1, Olfm4 and Lgr5 in WT organoids [3]: significantly decreased

CC/C(=C(\c1ccccc1)c1ccc(OCCN(C)C)cc1)c1ccccc1 [tamoxifen]
intestinal crypt regeneration (viable crypts), higher than controls (intestinal epithelium): ~50%

rhLIF: Emfilermin is the term used for rhLIF produced in Escherichia coli
safety and tolerability [4]: safe and well tolerated
adverse effects on blood progenitor cells [5]: no adverse effects
hematopoietic recovery after chemotherapy [5]: normal
safety of administration [5]: safely administered

O=[N+]([O-])c1ccc2c(c1)S(=O)(=O)C=C2 [Stattic]
growth and proliferation of WT organoids (WT intestinal organoids): did not have a significant effect
effect on ISC functions in WT organoids (WT intestinal organoids): very limited effect
growth and proliferation of LIF KO organoids [1]: did not have a significant effect

CCOC(=O)C1=C(N)Oc2ccc(Cl)cc2C1C(C#N)C(=O)OCC (stereo not shown) [SC79]
growth and cell proliferation of WT organoids (WT intestinal organoids; SC79 5 μM, compared with LIF KO organoids): less pronounced effect
stem cell number in WT organoids (WT intestinal organoids): less pronounced effect
growth and cell proliferation of LIF KO organoids ([1]; SC79 5 μM): greatly improved
stem cell number in LIF KO organoids [1]: greatly increased
mRNA levels of Axin2, Ascl1, Olfm4 and Lgr5 in LIF KO organoids [3]: greatly increased
mRNA levels of Axin2, Ascl1, Olfm4 and Lgr5 in WT organoids [3]: less pronounced effect

COc1nccc(-c2c(-c3ccc(F)cc3)ncn2C2CCNCC2)n1 [SB242235]
growth and proliferation of WT organoids (WT intestinal organoids): did not have a significant effect
effect on ISC functions in WT organoids (WT intestinal organoids): no obvious effect
growth and proliferation of LIF KO organoids [1]: did not have a significant effect
